Format in all cases: biochemical
The target of one assay is T1, MMP2 (Homo sapiens, UniProt P08253).
T1 sequence (P08253 110-660): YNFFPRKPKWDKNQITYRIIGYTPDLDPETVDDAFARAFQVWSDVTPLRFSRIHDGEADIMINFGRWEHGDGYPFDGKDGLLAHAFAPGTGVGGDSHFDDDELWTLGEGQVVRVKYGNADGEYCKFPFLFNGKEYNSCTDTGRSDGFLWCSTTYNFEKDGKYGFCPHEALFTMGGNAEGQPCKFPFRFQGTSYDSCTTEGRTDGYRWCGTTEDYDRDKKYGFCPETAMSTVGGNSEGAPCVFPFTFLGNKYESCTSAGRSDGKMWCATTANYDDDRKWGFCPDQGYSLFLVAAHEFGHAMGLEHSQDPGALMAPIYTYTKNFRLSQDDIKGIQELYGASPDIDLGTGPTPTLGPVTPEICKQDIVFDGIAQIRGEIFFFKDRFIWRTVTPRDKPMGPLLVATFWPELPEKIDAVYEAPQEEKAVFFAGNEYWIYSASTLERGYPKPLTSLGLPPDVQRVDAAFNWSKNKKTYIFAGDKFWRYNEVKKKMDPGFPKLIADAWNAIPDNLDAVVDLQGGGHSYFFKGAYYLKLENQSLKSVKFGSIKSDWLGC
Put plainly: MMP-2 colorimetric inhibition assay (Enzo kit BML-AK408). Particulars: thiopeptide substrate, absorbance 415 nm; read-out: MMP 2 IC50 class. As for the experimental part:
(§1) The inhibitory activities of the compounds of the invention were assessed in 96-well microplate format using MMP1, MMP2, MMP9 and MMP13 colorimetric assay kits and TACE fluorometric assay kit from Enzo Life Sciences, Inc. The inhibitory effect of the compounds of the invention on ADAM10 activity were evaluated in 96-well microplate format using fluorometric assay from AnaSpec, Inc.
The MMP-2 Colorimetric Drug Discovery Kit (catalog #BML-AK408) is a complete assay system designed to screen MMP-2 inhibitors using a thiopeptide as a chromogenic substrate (Ac-PLG-[2-mercapto-4-methylpentanoyl]-LG-OC2H5). The MMP cleavage site peptide bond is replaced by a thioester bond in the thiopeptide. Hydrolysis of this bond by an MMP produces a sulfhydryl group, which reacts with DTNB [5,5′-dithiobis(2-nitrobenzoic acid), Ellman's reagent] to form 2-nitro-5-thiobenzoic acid, that can be detected spectrophotometrically.
(§2) The inhibitory activities of the compounds of the invention against MMP1, MMP2, MMP9 and MMP13 were tested according to the manufacturer's assay protocols and the absorbance at 415 nm was monitored using the Tecan Infinite® 200 Pro F Nano^+ microplate reader.
(§3) The normalized values were analyzed using GraphPadPrism 9 for Windows (GraphPad Software, San Diego, CA, USA) software by plotting inhibition curves and determining the IC50 values (in nM).

The next assay addresses ADAM17 (TACE) (Homo sapiens, UniProt P78536). The assay can be described thus: TACE fluorometric inhibition assay (Enzo kit BML-AK310). Particulars: quenched fluorogenic peptide, ex/em 320/420 nm; read-out: TACE IC50 class. As for the experimental part: as §1
The TACE Fluorometric Drug Discovery Kit (catalog #BML-AK310) is a complete assay system designed to screen ADAM17 (TACE) inhibitors using a quenched fluorogenic peptide: Mca-PLAQAV-Dpa-RSSSR—NH2. Mca fluorescence is quenched by the Dpa group until cleavage by proteases separates the two moieties leading to an increase in Mca fluorescence.
The inhibitory activity of the compounds of the invention against TACE was tested according to the manufacturer's assay protocol and the fluorescence was monitored at excitation/emission wavelengths=320 nm/420 nm using Tecan Infinite® 200 Pro F Nano^+ microplate reader.
as §3

Another assay has as its target T2, MMP1 (Homo sapiens, UniProt P03956).
T2 sequence (P03956 100-269 limits assumed): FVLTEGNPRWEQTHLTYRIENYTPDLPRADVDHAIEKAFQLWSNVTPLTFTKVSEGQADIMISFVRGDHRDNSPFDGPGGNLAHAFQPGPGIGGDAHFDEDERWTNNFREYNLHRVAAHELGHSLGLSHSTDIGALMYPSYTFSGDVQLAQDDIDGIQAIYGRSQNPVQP
The assay can be described thus: MMP-1 colorimetric inhibition assay (Enzo kit BML-AK404). Particulars: thiopeptide substrate, absorbance 415 nm; read-out: MMP 1 IC50 class. As for the experimental part: as §1
The MMP-1 Colorimetric Drug Discovery Kit (catalog #BML-AK404) is a complete assay system designed to screen inhibitors of matrix metalloproteinase-1 using a thiopeptide as a chromogenic substrate (Ac-PLG-[2-mercapto-4-methylpentanoyl]-LG-OC2H5). The MMP cleavage site peptide bond is replaced by a thioester bond in the thiopeptide. Hydrolysis of this bond by an MMP produces a sulfhydryl group, which reacts with DTNB [5,5′-dithiobis(2-nitrobenzoic acid), Ellman's reagent] to form 2-nitro-5-thiobenzoic acid, that can be detected spectrophotometrically.
as §2, §3

Another assay concerns the target MMP9 (Homo sapiens, UniProt P14780). Put plainly: MMP-9 colorimetric inhibition assay (Enzo kit BML-AK410). The note with it: thiopeptide substrate, absorbance 415 nm; read-out: MMP 9 IC50 class. Here is the method:
as §1
The MMP-9 Colorimetric Drug Discovery Kit (catalog #BML-AK410) is a complete assay system designed to screen inhibitors of matrix metalloproteinase-9 using a thiopeptide as a chromogenic substrate (Ac-PLG-[2-mercapto-4-methylpentanoyl]-LG-OC2H5). The MMP cleavage site peptide bond is replaced by a thioester bond in the thiopeptide. Hydrolysis of this bond by an MMP produces a sulfhydryl group, which reacts with DTNB [5,5′-dithiobis(2-nitrobenzoic acid), Ellman's reagent] to form 2-nitro-5-thiobenzoic acid, that can be detected spectrophotometrically.
as §2, §3

Another assay addresses T3, MMP13 (Homo sapiens, UniProt P45452).
T3 construct: purchased Enzo Life Sciences, Inc. BML-AK412
The assay can be described thus: MMP-13 colorimetric inhibition assay (Enzo kit BML-AK412). Particulars: thiopeptide substrate, absorbance 415 nm; read-out: MMP 13 IC50 class. Here is the method:
as §1
The MMP-13 Colorimetric Drug Discovery Kit (catalog #BML-AK412) is a complete assay system designed to screen inhibitors of matrix metalloproteinase-13 using a thiopeptide as a chromogenic substrate (Ac-PLG-[2-mercapto-4-methylpentanoyl]-LG-OC2H5). The MMP cleavage site peptide bond is replaced by a thioester bond in the thiopeptide. Hydrolysis of this bond by an MMP produces a sulfhydryl group, which reacts with DTNB [5,5′-dithiobis(2-nitrobenzoic acid), Ellman's reagent] to form 2-nitro-5-thiobenzoic acid, that can be detected spectrophotometrically.
as §2, §3

This passage reports IC50 results from patent US20250215010A1, “DIAZABICYCLOOCTANE DERIVATIVES USEFUL AS MATRIX METALLOPROTEINASE INHIBITORS” (VASA THERAPEUTICS SPOLKA Z OGRANICZONA ODPOWIEDZIALNOSCIA, priority 2022, published 2025).

Sequence of MMP9 (P14780 94-707): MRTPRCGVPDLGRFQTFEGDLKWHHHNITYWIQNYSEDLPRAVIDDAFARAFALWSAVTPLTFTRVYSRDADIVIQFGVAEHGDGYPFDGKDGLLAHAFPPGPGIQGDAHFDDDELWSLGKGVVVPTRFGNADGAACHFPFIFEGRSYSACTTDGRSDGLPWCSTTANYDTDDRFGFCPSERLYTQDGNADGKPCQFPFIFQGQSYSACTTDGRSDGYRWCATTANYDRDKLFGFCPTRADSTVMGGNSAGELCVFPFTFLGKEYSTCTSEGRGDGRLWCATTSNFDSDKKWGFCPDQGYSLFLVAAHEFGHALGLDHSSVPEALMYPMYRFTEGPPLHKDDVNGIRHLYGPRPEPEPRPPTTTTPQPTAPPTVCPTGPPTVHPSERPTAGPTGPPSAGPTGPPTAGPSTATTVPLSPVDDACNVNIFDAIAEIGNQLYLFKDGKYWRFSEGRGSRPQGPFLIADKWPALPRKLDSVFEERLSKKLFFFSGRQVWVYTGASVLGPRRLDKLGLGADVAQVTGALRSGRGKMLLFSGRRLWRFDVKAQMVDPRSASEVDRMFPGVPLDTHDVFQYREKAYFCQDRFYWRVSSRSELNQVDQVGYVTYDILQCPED
Sequence of ADAM17 (TACE) (P78536 215-477 limits assumed): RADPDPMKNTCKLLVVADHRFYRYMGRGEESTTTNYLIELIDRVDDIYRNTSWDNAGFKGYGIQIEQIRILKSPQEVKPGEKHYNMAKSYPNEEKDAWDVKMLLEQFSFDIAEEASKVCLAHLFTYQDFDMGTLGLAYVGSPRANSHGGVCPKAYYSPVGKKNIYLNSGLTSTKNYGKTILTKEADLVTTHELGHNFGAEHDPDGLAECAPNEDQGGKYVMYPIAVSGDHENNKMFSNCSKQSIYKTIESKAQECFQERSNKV

With `COCCOC(=O)N1[C@@H]2CC[C@H]1[C@H](C(=O)NO)N(S(=O)(=O)c1ccc(Oc3ccc(C)nc3)nc1)C2` [Example 16, 2-methoxyethyl (1S,2R,5R)-2-(hydroxycarbamoyl)-3-((6-((6-methylpyridin-3-yl)-oxy)pyridin-3-yl)-sulfonyl)-3,8-diaza-bicyclo[3.2.1]octane-8-carboxylate], the IC50 – broadly, the concentration that gives 50% inhibition – was below 50 nM at MMP2; 1000 to 10000 nM at ADAM17 (TACE); 1000 to 10000 nM on MMP1; 50 to 1000 nM at MMP9; 50 to 1000 nM on MMP13.

On to `COCCOC(=O)N1[C@@H]2CC[C@H]1[C@H](C(=O)NO)N(S(=O)(=O)c1cnc(Oc3ccc(F)cc3)cn1)C2` [Example 17, 2-methoxyethyl (1S,2R,5R)-3-((5-(4-fluorophenoxy)-pyrazin-2-yl)sulfonyl)-2-(hydroxycarbamoyl)-3,8-diazabicyclo-[3.2.1]octane-8-carboxylate], for which the IC50 was 1000 to 10000 nM on MMP2; above 10000 nM on ADAM17 (TACE); above 10000 nM on MMP1; 1000 to 10000 nM at MMP9; 1000 to 10000 nM on MMP13.

With `COCCOC(=O)N1[C@@H]2CC[C@H]1[C@H](C(=O)NO)N(S(=O)(=O)c1ccc(Oc3cncc(F)c3)nc1)C2` [Example 23, 2-methoxyethyl (1S,2R,5R)-3-((6-((5-fluoropyridin-3-yl)oxy)pyridin-3-yl)-sulfonyl)-2-(hydroxycarbamoyl)-3,8-diaza-bicyclo[3.2.1]octane-8-carboxylate], the IC50 at MMP2 is below 50 nM; at ADAM17 (TACE), 1000 to 10000 nM; at MMP1, 50 to 1000 nM; on MMP9, 50 to 1000 nM; at MMP13 it was 50 to 1000 nM.

Take `COCCOC(=O)N1[C@@H]2CC[C@H]1[C@H](C(=O)NO)N(S(=O)(=O)c1ccc(Oc3ccc(C(C)(C)O)cc3)nc1)C2` [Example 26, 2-methoxyethyl (1S,2R,5R)-2-(hydroxycarbamoyl)-3-((6-(4-(2-hydroxy-propan-2-yl)-phenoxy)pyridin-3-yl)sulfonyl)-3,8-diazabicyclo[3.2.1]-octane-8-carboxylate]: the IC50 was below 50 nM at MMP2; 1000 to 10000 nM on ADAM17 (TACE); above 10000 nM at MMP1; 50 to 1000 nM on MMP9; 50 to 1000 nM on MMP13.

As to `COCCOC(=O)N1[C@@H]2CC[C@H]1[C@H](C(=O)NO)N(S(=O)(=O)c1ccc(Oc3cnc(OC)nc3)nc1)C2` [Example 27, 2-methoxyethyl (1S,2R,5R)-2-(hydroxycarbamoyl)-3-((6-((2-methoxy-pyrimidin-5-yl)oxy)-pyridin-3-yl)-sulfonyl)-3,8-diaza-bicyclo[3.2.1]octane-8-carboxylate], the IC50 was below 50 nM at MMP2; 1000 to 10000 nM at ADAM17 (TACE); above 10000 nM on MMP1; 50 to 1000 nM at MMP9; 50 to 1000 nM at MMP13.

As to `CCn1cc(Oc2ccc(S(=O)(=O)N3C[C@H]4CC[C@@H]([C@@H]3C(=O)NO)N4C(=O)OCCOC)cn2)cn1` [Example 35, 2-methoxyethyl (1S,2R,5R)-3-((6-((1-ethyl-1H-pyrazol-4-yl)-oxy)pyridin-3-yl)-sulfonyl)-2-(hydroxycarbamoyl)-3,8-diaza-bicyclo[3.2.1]octane-8-carboxylate], the IC50 on MMP2 is below 50 nM; on ADAM17 (TACE), 50 to 1000 nM; on MMP1, 50 to 1000 nM; on MMP9 it was below 50 nM; at MMP13, below 50 nM.

Regarding `COCCOC(=O)N1[C@@H]2CC[C@H]1[C@H](C(=O)NO)N(S(=O)(=O)c1ccc(Oc3cnn(C(C)C)c3)nc1)C2` [Example 37, 2-methoxyethyl (1S,2R,5R)-2-(hydroxycarbamoyl)-3-((6-((1-isopropyl-1H-pyrazol-4-yl)-oxy)pyridin-3-yl)-sulfonyl)-3,8-diazabicyclo-[3.2.1]octane-8-carboxylate], the IC50 at MMP2 is 50 to 1000 nM; at ADAM17 (TACE) it was 50 to 1000 nM; on MMP1, 1000 to 10000 nM; on MMP9 it was 50 to 1000 nM; at MMP13 it was 50 to 1000 nM.

On to `COCCOC(=O)N1[C@@H]2CC[C@H]1[C@H](C(=O)NO)N(S(=O)(=O)c1ccc(Oc3cnn(CC(C)C)c3)nc1)C2` [Example 38, 2-methoxyethyl (1S,2R,5R)-2-(hydroxycarbamoyl)-3-((6-((1-isobutyl-1H-pyrazol-4-yl)oxy)pyridin-3-yl)sulfonyl)-3,8-diazabicyclo-[3.2.1]octane-8-carboxylate], for which the IC50 on MMP2 was in the range of 50 to 1000 nM; on ADAM17 (TACE), 50 to 1000 nM; at MMP1 it was 1000 to 10000 nM; on MMP9 it was 50 to 1000 nM; at MMP13, 50 to 1000 nM.

As for `COCCOC(=O)N1[C@@H]2CC[C@H]1[C@H](C(=O)NO)N(S(=O)(=O)c1ccc(Oc3cnn(-c4ccc(F)cc4)c3)nc1)C2` [Example 40, 2-methoxyethyl (1S,2R,5R)-3-((6-((1-(4-fluorophenyl)-1H-pyrazol-4-yl)oxy)pyridin-3-yl)sulfonyl)-2-(hydroxycarbamoyl)-3,8-diazabicyclo-[3.2.1]octane-8-carboxylate], the IC50 was below 50 nM at MMP2; 50 to 1000 nM on ADAM17 (TACE); 50 to 1000 nM at MMP1; below 50 nM at MMP9; below 50 nM at MMP13.

As for `COCCOC(=O)N1[C@@H]2CC[C@H]1[C@H](C(=O)NO)N(S(=O)(=O)c1cc(F)c(Oc3cnn(C)c3)c(F)c1)C2` [Example 42, 2-methoxyethyl (1S,2R,5R)-3-((3,5-difluoro-4-((1-methyl-1H-pyrazol-4-yl)oxy)phenyl)sulfonyl)-2-(hydroxycarbamoyl)-3,8-diazabicyclo[3.2.1]octane-8-carboxylate], the IC50 on MMP2 lay within 50 to 1000 nM; at ADAM17 (TACE), 50 to 1000 nM; on MMP1, 1000 to 10000 nM; on MMP9 it was 50 to 1000 nM; on MMP13, 50 to 1000 nM.
